Tests used:
[1] = target: T1, p110α Type Ia human PI3K (Homo sapiens, UniProt P42336); assay: In vitro PI3K enzyme assay (AlphaScreen), Test (a); type: biochemical; details: recombinant enzyme, ATP 4 μM, read-out: IC50 versus p110α Type Ia human PI3K
T1 construct: full length DNA of each of the p110α, p110β and p110δ Type Ia human PI3K p110 isoforms; 6-His; made in house
From the text: (a) In Vitro PI3K Enzyme Assay
The assay used AlphaScreen technology (Gray et al., Analytical Biochemistry, 2003, 313: 234-245) to determine the ability of test compounds to inhibit phosphorylation by recombinant Type I PI3K enzymes of the lipid PI(4,5)P2.
DNA fragments encoding human PI3K catalytic and regulatory subunits were isolated from cDNA libraries using standard molecular biology and PCR cloning techniques. The selected DNA fragments were used to generate baculovirus expression vectors. In particular, full length DNA of each of the p110α, p110β and p110δ Type Ia human PI3K p110 isoforms (EMBL Accession Nos. HSU79143, S67334, Y10055 for p110α, p110β and p110δ respectively) were sub-cloned into a pDEST10 vector (Invitrogen Limited, Fountain Drive, Paisley, UK). The vector is a Gateway-adapted version of Fastbac1 containing a 6-His epitope tag. A truncated form of Type Ib human PI3K p110γ isoform corresponding to amino acid residues 144-1102 (EMBL Accession No. X8336A) and the full length human p85α regulatory subunit (EMBL Accession No. HSP13KIN) were also sub-cloned into pFastBac1 vector containing a 6-His epitope tag. The Type Ia p110 constructs were co-expressed with the p85α regulatory subunit. Following expression in the baculovirus system using standard baculovirus expression techniques, expressed proteins were purified using the His epitope tag using standard purification techniques.
DNA corresponding to amino acids 263 to 380 of human general receptor for phosphoinositides (Grp1) PH domain was isolated from a cDNA library using standard molecular biology and PCR cloning techniques. The resultant DNA fragment was sub-cloned into a pGEX 4T1 E. coli expression vector containing a GST epitope tag (Amersham Pharmacia Biotech, Rainham, Essex, UK) as described by Gray et al., Analytical Biochemistry, 2003, 313: 234-245). The GST-tagged Grp1 PH domain was expressed and purified using standard techniques.
Test compounds were prepared as 10 mM stock solutions in DMSO and diluted into water as required to give a range of final assay concentrations. Aliquots (2 μl) of each compound dilution were placed into a well of a Greiner 384-well low volume (LV) white polystyrene plate (Greiner Bio-one, Brunel Way, Stonehouse, Gloucestershire, UK Catalogue No. 784075). […]
Biotinylated-DiC8-PI(3,4,5)P3 (50 nM; Cell Signals Inc., Catalogue No. 107), recombinant purified GST-Grp1 PH protein (2.5 nM) and AlphaScreen Anti-GST donor and acceptor beads (100 ng; Packard Bioscience Limited, Station Road, Pangbourne, Berkshire, UK, Catalogue No. 6760603M) were added and the assay plates were left for about 5 to 20 hours at room temperature in the dark. The resultant signals arising from laser light excitation at 680 nm were read using a Packard AlphaQuest instrument. […]

[2] = tested on: phosphorylation of Serine 473 in Akt; assay: In vitro phospho-Ser473 Akt assay in MDA-MB-468 cells, Test (c); type: cell-based; details: Homo sapiens, 2 hours, read-out: IC50, inhibition of phosphorylation of Serine 473 in Akt
Protocol: (c) In Vitro Phospho-Ser473 Akt Assay
This assay determines the ability of test compounds to inhibit phosphorylation of Serine 473 in Akt as assessed using Acumen Explorer technology (TTP LabTech Limited, Royston, Herts, SG8 6EE, UK), a plate reader that can be used to rapidly quantitate features of images generated by laser-scanning.
A MDA-MB-468 human breast adenocarcinoma cell line (LGC Promochem, Teddington, Middlesex, UK, Catalogue No. HTB-132) was routinely maintained at 37° C. with 5% CO2 up to a confluency of 70-90% in DMEM containing 10% FCS and 1% L-glutamine.
For the assay, the cells were detached from the culture flask using ‘Accutase’ (Innovative Cell Technologies Inc., San Diego, Calif., USA; Catalogue No. AT104) using standard tissue culture methods and resuspended in media to give 5.5×10^4 cells per ml. Aliquots (90 μl) were seeded into each of the inner 60 wells of a black ‘Costar’ 96-well plate (Corning Inc., NY, USA; Catalogue No. 3904) to give a density of ˜5000 cells per well. Aliquots (90 μl) of culture media were placed in the outer wells to prevent edge effects. [An alternative cell handling procedure involved the maintenance of the cells in a ‘SelecT’ robotic device (The Automation Partnership, Royston, Herts SG8 5WY, UK). Cells were resuspended in media to give 5×10^4 cells per ml. Aliquots (100 μl) were seeded into the wells of a black ‘Costar’ 96-well plate.] The cells were incubated overnight at 37° C. with 5% CO2 to allow them to adhere.
On day 2, the cells were treated with test compounds. Test compounds were prepared as 10 mM stock solutions in DMSO and serially diluted as required with DMSO and with growth media to give a range of concentrations that were 10-fold the required final test concentrations. Aliquots (10 μl) of each compound dilution were placed in duplicate wells to give the final required concentrations. As a minimum response control, each plate contained wells having a final concentration of 30 μM LY294002 (Calbiochem, Beeston, UK, Catalogue No. 440202). As a maximum response control, wells contained 0.5% DMSO instead of test compound. [An alternative cell treatment procedure involved the transfer of test compounds to the wells using an ‘Echo 550’ liquid dispenser (Labcyte Inc., Sunnyvale, Calif. 94089, USA). Test compounds were prepared as 10 mM stock solutions in DMSO and aliquots (40 μl) of each compound were dispensed into one well of a quadrant of wells within a 384-well plate (Labcyte Inc., Catalogue No. P-05525-CV1). Four concentrations of each compound were prepared in each quadrant of wells in the 384-well plate using a ‘Hydra II’ pipettor (Matrix Technologies Corporation, Handforth SK9 3LP, UK). […]

[3] = target: mTOR PI kinase-related kinase (Homo sapiens, UniProt P42345); assay: In vitro mTOR PI kinase-related kinase assay (AlphaScreen), Test (b); type: biochemical; details: recombinant mTOR (1362-2549), ATP 20 μM, read-out: IC50 versus mTOR PI kinase-related kinase
Protocol: (b) In Vitro mTOR PI Kinase-Related Kinase Assay
The assay used AlphaScreen technology (Gray et al, Analytical Biochemistry, 2003, 313: 234-245) to determine the ability of test compounds to inhibit phosphorylation by recombinant mTOR. […]
Each reaction was stopped by the addition of 10 μl of a mixture of EDTA (50 mM), bovine serum albumin (BSA; 0.5 mg/ml) and Tris-HCl pH7.4 buffer (50 mM) containing p70 S6 Kinase (T389) 1A5 Monoclonal Antibody (Cell Signalling Technology, Catalogue No. 9206B) and AlphaScreen Streptavidin donor and Protein A acceptor beads (200 ng; Perkin Elmer, Catalogue No. 6760002B and 6760137R respectively) were added and the assay plates were left for about 20 hours at room temperature in the dark. The resultant signals arising from laser light excitation at 680 nm were read using a Packard Envision instrument.
Phosphorylated biotinylated peptide is formed in situ as a result of mTOR mediated phosphorylation. […] Upon laser light excitation at 680 nm, the donor bead:acceptor bead complex produces a signal that can be measured. […]
mTOR enzyme inhibition for a given test compound was expressed as an IC50 value.

T1 sequence (P42336 whole entry, canonical isoform): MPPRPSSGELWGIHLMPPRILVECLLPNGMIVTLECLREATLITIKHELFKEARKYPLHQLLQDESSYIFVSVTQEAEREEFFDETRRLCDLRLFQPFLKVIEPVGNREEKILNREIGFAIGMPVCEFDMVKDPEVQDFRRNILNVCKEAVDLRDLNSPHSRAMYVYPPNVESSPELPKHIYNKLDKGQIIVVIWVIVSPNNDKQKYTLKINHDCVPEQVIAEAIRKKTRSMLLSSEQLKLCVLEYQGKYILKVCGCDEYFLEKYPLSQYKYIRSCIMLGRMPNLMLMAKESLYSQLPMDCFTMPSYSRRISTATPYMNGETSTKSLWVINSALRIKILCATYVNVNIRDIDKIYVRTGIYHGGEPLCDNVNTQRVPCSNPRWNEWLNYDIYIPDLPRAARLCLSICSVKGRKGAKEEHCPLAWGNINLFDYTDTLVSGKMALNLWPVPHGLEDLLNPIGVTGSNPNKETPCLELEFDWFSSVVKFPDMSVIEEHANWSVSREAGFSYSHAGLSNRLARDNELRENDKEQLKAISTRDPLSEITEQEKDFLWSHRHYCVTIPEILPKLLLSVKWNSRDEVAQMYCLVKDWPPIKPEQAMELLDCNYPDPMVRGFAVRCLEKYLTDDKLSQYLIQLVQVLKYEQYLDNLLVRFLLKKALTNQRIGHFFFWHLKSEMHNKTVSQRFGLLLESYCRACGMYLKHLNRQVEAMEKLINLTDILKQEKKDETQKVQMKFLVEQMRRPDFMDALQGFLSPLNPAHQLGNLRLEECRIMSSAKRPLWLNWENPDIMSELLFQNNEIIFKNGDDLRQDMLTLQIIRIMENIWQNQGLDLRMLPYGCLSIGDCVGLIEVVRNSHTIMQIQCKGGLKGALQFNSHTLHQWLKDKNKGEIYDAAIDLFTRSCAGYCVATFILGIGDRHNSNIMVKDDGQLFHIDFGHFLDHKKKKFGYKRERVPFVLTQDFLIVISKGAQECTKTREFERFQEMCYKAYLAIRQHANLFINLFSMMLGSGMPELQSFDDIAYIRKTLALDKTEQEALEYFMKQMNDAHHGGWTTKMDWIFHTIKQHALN
T1 sequence (P27986 whole entry partner, canonical isoform): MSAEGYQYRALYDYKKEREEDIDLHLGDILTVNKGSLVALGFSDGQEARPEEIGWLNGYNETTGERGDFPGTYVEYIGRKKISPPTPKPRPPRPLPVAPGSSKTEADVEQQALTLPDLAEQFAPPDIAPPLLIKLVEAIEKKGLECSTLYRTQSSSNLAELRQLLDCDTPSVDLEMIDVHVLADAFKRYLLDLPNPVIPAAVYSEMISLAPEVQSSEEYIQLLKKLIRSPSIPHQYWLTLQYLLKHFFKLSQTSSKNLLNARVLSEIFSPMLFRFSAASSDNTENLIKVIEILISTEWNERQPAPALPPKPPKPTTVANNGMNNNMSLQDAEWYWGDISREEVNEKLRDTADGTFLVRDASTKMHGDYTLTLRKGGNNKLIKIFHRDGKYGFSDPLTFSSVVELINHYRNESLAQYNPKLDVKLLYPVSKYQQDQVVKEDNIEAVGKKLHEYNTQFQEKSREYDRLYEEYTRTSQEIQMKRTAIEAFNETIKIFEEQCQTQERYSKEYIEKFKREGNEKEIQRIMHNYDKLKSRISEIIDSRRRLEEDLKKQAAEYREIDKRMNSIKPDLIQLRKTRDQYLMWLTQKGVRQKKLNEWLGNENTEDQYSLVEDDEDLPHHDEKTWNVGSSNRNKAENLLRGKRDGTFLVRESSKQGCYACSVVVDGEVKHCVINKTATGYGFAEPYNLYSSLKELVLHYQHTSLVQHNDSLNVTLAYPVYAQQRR
mTOR PI kinase-related kinase, sequence (P42345 1362-2549): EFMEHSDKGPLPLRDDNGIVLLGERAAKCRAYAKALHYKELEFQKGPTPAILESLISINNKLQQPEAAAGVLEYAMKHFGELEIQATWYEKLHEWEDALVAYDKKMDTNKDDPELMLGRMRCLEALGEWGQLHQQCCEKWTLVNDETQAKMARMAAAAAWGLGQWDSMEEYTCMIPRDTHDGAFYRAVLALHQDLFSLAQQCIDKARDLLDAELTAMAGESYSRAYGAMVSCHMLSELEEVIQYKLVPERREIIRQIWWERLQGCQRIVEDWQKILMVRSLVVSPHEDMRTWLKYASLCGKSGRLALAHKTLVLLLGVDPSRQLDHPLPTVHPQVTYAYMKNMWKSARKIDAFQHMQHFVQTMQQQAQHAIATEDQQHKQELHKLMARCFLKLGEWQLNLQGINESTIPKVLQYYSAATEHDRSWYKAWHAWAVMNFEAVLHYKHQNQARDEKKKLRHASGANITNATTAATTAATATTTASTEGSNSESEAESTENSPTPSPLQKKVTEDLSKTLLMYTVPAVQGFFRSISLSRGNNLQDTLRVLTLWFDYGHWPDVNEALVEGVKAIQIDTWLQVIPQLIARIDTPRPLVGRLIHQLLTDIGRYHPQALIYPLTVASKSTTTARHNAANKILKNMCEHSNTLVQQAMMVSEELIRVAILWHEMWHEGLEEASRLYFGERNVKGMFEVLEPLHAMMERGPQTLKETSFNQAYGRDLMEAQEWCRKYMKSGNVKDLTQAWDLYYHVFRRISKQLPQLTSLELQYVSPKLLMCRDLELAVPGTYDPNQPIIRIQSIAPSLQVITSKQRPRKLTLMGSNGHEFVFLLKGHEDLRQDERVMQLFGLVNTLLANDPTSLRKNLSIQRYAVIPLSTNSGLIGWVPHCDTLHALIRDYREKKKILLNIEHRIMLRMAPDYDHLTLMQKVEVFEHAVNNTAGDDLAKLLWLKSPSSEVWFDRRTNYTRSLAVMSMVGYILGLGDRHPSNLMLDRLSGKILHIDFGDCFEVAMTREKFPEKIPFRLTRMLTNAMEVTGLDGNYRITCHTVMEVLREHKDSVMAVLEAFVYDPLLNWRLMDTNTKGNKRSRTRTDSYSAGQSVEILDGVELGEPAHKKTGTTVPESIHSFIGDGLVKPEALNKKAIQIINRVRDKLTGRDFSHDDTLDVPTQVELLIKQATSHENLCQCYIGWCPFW

For `Cc1nc2[nH]ccc2cc1-c1cnc(Cl)c(NS(=O)(=O)c2ccccc2)c1` [Example 8, N-[2-chloro-5-(6-methyl-1H-pyrrolo[2,3-b]pyridin-5-yl)pyridin-3-yl]benzenesulphonamide], the IC50 [1] was about 0.1 µM and the IC50 [2] was about 3 µM.

With `O=S(=O)(Nc1cc(-c2cnc3[nH]ccc3c2)cnc1Cl)c1ccccc1` [Example 3, N-[2-chloro-5-(1H-pyrrolo[2,3-b]pyridin-5-yl)pyridin-3-yl]benzenesulphonamide] the IC50 [1] was about 0.2 µM and the IC50 [2] was about 5 µM.

`Cc1nc2[nH]cnc2cc1-c1cnc(Cl)c(NS(=O)(=O)c2ccccc2)c1` [Example 7, N-[2-chloro-5-(5-methyl-3H-imidazo[4,5-b]pyridin-6-yl)pyridin-3-yl]benzenesulphonamide] was tested, and the IC50 [1] was about 0.5 µM and the IC50 [2] was about 2 µM.

`CS(=O)(=O)Nc1cc(-c2cnc3[nH]ccc3c2)cnc1Cl` [Example 1, N-[2-chloro-5-(1H-pyrrolo[2,3-b]pyridin-5-yl)pyridin-3-yl]methanesulphonamide] showed an IC50 [1] of about 0.5 µM, an IC50 [3] of about 1 µM and an IC50 [2] of about 13 µM.
